This note sets out measurements from publication PMC8367633 (Journal of Applied Glycoscience, 2020).

The assay addresses T1, Blon_0248 (Bifidobacterium longum, UniProt A0ACD7UNL5).
T1 sequence (A0ACD7UNL5 1-449): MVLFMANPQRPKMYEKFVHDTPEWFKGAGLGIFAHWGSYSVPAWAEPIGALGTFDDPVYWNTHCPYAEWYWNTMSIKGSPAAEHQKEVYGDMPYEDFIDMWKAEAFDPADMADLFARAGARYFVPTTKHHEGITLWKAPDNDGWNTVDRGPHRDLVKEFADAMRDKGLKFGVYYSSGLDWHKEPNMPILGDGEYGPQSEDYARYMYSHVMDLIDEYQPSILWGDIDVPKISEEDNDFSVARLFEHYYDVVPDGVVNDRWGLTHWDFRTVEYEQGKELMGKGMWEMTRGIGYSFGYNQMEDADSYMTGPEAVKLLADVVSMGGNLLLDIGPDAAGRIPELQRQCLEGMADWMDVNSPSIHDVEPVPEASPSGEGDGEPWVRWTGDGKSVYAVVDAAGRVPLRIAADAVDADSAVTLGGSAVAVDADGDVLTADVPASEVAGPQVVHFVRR
Kind of assay: pNP release, absorbance […] nm. In kind it is biochemical. To be noted: 50 mM sodium acetate pH 6.0, 37 °C.

For `C[C@@H]1O[C@@H](Oc2ccc([N+](=O)[O-])cc2)[C@@H](O)[C@H](O)[C@@H]1O` [pNP-α-Fuc], the “pNP release, absorbance 405 nm” value is reported as “Both proteins specifically hydrolyzed pNP-α-Fuc, but not any of the other pNP-glycosides tested”.
